From PubChem BioAssay (NCI)
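Step 1: Grow cells in 96-well plates. Step 2: Expose to compound for 48 hours at 5 concentrations. Step 3: Interpolate endpoints linearly; if unreached, use highest concentration. GI50 is the concentration that inhibits growth by half. The concentration for full growth arrest is given as TGI.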

Columns and labels:
Experiment in all cases: NCI tumour cell line growth inhibition, 48 h
[1] = system: OVCAR-3 ovarian
[2] = system: U251 CNS
[3] = system: EKVX NSCLC
[4] = system: ACHN renal
[5] = system: A498 renal
[6] = system: 786-0 renal
[7] = system: NCI-H460 lung
[8] = system: BT-549 breast
[9] = system: T-47D breast
[10] = system: NCI-H226 lung
[11] = system: NCI-H23 lung
[12] = system: OVCAR-5 ovarian
[13] = system: NCI-H522 lung
[14] = system: SR leukemia
[15] = system: HT29 colon
[16] = system: PC-3 prostate
[17] = system: HCC-2998 colon
[18] = system: SNB-75 CNS
[19] = system: SNB-19 CNS
[20] = system: OVCAR-4 ovarian
[21] = system: HS 578T breast
[22] = system: MALME-3M melanoma
[23] = system: RXF 393 renal
[24] = system: K-562 leukemia
[25] = system: RPMI-8226 leukemia
[26] = system: MDA-MB-435
[27] = system: A549 NSCLC
[28] = system: LOX IMVI melanoma
[29] = system: HOP-92 NSCLC
[30] = system: HCT-116 colon
[31] = system: IGROV1 ovarian
[32] = system: SF-539 CNS
[33] = system: SW-620 colon
[34] = system: SK-MEL-2 melanoma
[35] = system: SF-268 CNS
[36] = system: HOP-62 NSCLC
[37] = system: CCRF-CEM leukemia
[38] = system: SF-295 CNS
[39] = system: DU-145 prostate
[40] = system: HL-60(TB) leukemia
[41] = system: OVCAR-8 ovarian
[42] = system: UACC-62 melanoma
[43] = system: NCI/ADR-RES ovarian
[44] = system: UACC-257 melanoma
[45] = system: HCT-15 colon
[46] = system: CAKI-1 renal
[47] = system: COLO 205 colon
[48] = system: SK-OV-3 ovarian
[49] = system: MOLT-4 leukemia
[50] = system: SK-MEL-28 melanoma
[51] = system: SN12C renal
[52] = system: TK-10 renal
[53] = system: SK-MEL-5 melanoma
[54] = system: M14 melanoma
[55] = system: UO-31 renal
[56] = system: MDA-MB-231 breast
[57] = system: MCF7 breast
[58] = system: KM12 colon

COc1ccc(-n2cc(-c3cc(OC)c(OC)c(OC)c3)[nH]c2=S)cc1OC
GI50 [1]: > 100 µM | TGI [1]: > 100 µM | GI50 [2]: > 100 µM | TGI [2]: > 100 µM | GI50 [3]: > 100 µM | TGI [3]: > 100 µM | GI50 [4]: > 100 µM | TGI [4]: > 100 µM | GI50 [5]: > 100 µM | TGI [5]: > 100 µM | GI50 [6]: > 100 µM | TGI [6]: > 100 µM | GI50 [7]: > 100 µM | TGI [7]: > 100 µM | GI50 [8]: > 100 µM | TGI [8]: > 100 µM | GI50 [9]: > 100 µM | TGI [9]: > 100 µM | GI50 [10]: > 100 µM | TGI [10]: > 100 µM | GI50 [11]: > 100 µM | TGI [11]: > 100 µM | GI50 [12]: > 100 µM | TGI [12]: > 100 µM | GI50 [13]: > 100 µM | TGI [13]: > 100 µM | GI50 [14]: 2.57 µM | TGI [14]: 8.76 µM | GI50 [15]: > 100 µM | TGI [15]: > 100 µM | GI50 [16]: > 100 µM | TGI [16]: > 100 µM | GI50 [17]: 76.8 µM | TGI [17]: > 100 µM | GI50 [18]: 57 µM | TGI [18]: > 100 µM | GI50 [19]: > 100 µM | TGI [19]: > 100 µM | GI50 [20]: > 100 µM | TGI [20]: > 100 µM | GI50 [21]: > 100 µM | TGI [21]: > 100 µM | GI50 [22]: > 100 µM | TGI [22]: > 100 µM | GI50 [23]: > 100 µM | TGI [23]: > 100 µM | GI50 [24]: > 100 µM | TGI [24]: > 100 µM | GI50 [25]: > 100 µM | TGI [25]: > 100 µM | GI50 [26]: > 100 µM | TGI [26]: > 100 µM | GI50 [27]: > 100 µM | TGI [27]: > 100 µM | GI50 [28]: > 100 µM | TGI [28]: > 100 µM | GI50 [29]: > 100 µM | TGI [29]: > 100 µM | GI50 [30]: > 100 µM | TGI [30]: > 100 µM | GI50 [31]: > 100 µM | TGI [31]: > 100 µM | GI50 [32]: > 100 µM | TGI [32]: > 100 µM | GI50 [33]: > 100 µM | TGI [33]: > 100 µM | GI50 [34]: > 100 µM | TGI [34]: > 100 µM | GI50 [35]: > 100 µM | TGI [35]: > 100 µM | GI50 [36]: > 100 µM | TGI [36]: > 100 µM | GI50 [37]: > 100 µM | TGI [37]: > 100 µM | GI50 [38]: > 100 µM | TGI [38]: > 100 µM | GI50 [39]: > 100 µM | TGI [39]: > 100 µM | GI50 [40]: > 100 µM | TGI [40]: > 100 µM | GI50 [41]: > 100 µM | TGI [41]: > 100 µM | GI50 [42]: > 100 µM | TGI [42]: > 100 µM | GI50 [43]: > 100 µM | TGI [43]: > 100 µM | GI50 [44]: > 100 µM | TGI [44]: > 100 µM | GI50 [45]: > 100 µM | TGI [45]: > 100 µM | GI50 [46]: > 100 µM | TGI [46]: > 100 µM | GI50 [47]: > 100 µM | TGI [47]: > 100 µM | GI50 [48]: > 100 µM | TGI [48]: > 100 µM | GI50 [49]: 7.04 µM | TGI [49]: > 100 µM | GI50 [50]: > 100 µM | TGI [50]: > 100 µM | GI50 [51]: > 100 µM | TGI [51]: > 100 µM | GI50 [52]: > 100 µM | TGI [52]: > 100 µM | GI50 [53]: > 100 µM | TGI [53]: > 100 µM | GI50 [54]: > 100 µM | TGI [54]: > 100 µM | GI50 [55]: > 100 µM | TGI [55]: > 100 µM | GI50 [56]: > 100 µM | TGI [56]: > 100 µM | GI50 [57]: > 100 µM | TGI [57]: > 100 µM | GI50 [58]: > 100 µM | TGI [58]: > 100 µM

O=C(CCCSc1nc(-c2ccc(Cl)cc2)cc(-c2ccc(Cl)cc2)n1)NO
GI50 [1]: 0.413 µM | TGI [1]: 2.14 µM | GI50 [2]: 0.693 µM | TGI [2]: 13 µM | GI50 [3]: 1.14 µM | TGI [3]: 12.7 µM | GI50 [4]: 0.387 µM | TGI [4]: 10.4 µM | GI50 [5]: 1.41 µM | TGI [5]: 4.26 µM | GI50 [6]: 0.971 µM | TGI [6]: 13.1 µM | GI50 [7]: 0.44 µM | TGI [7]: 4.11 µM | GI50 [8]: 3.21 µM | TGI [8]: 18.6 µM | GI50 [9]: 1.37 µM | TGI [9]: 16.7 µM | GI50 [10]: 2.17 µM | TGI [10]: 11.6 µM | GI50 [11]: 1.63 µM | TGI [11]: 10.4 µM | GI50 [12]: 1.42 µM | TGI [12]: 9.01 µM | GI50 [13]: 1.27 µM | TGI [13]: 8.11 µM | GI50 [14]: 0.339 µM | TGI [14]: 13 µM | GI50 [15]: 1.14 µM | TGI [15]: 60 µM | GI50 [16]: 1.21 µM | TGI [16]: 16.1 µM | GI50 [17]: 2.78 µM | TGI [17]: 10.3 µM | GI50 [18]: 2.1 µM | TGI [18]: 12 µM | GI50 [19]: 1.92 µM | TGI [19]: 13.2 µM | GI50 [20]: 0.603 µM | TGI [20]: 14.1 µM | GI50 [21]: 4.63 µM | TGI [21]: 22.8 µM | GI50 [22]: 2.25 µM | TGI [22]: 11.6 µM | GI50 [23]: 0.347 µM | TGI [23]: 1.86 µM | GI50 [24]: 0.727 µM | TGI [24]: > 100 µM | GI50 [25]: 1.38 µM | TGI [25]: 36.7 µM | GI50 [26]: 2.81 µM | TGI [26]: 17 µM | GI50 [27]: 1.59 µM | TGI [27]: 12.4 µM | GI50 [28]: 0.222 µM | TGI [28]: 1.44 µM | GI50 [29]: 2.51 µM | TGI [29]: 11.7 µM | GI50 [30]: 0.532 µM | TGI [30]: 17 µM | GI50 [31]: 1.15 µM | TGI [31]: 11.2 µM | GI50 [32]: 1.26 µM | TGI [32]: 4.93 µM | GI50 [33]: 0.838 µM | TGI [33]: 11.5 µM | GI50 [34]: 4.02 µM | TGI [34]: 20.4 µM | GI50 [35]: 1.21 µM | TGI [35]: 7.72 µM | GI50 [36]: 0.618 µM | TGI [36]: 11.9 µM | GI50 [37]: 0.517 µM | TGI [37]: > 100 µM | GI50 [38]: 1.17 µM | TGI [38]: 6.9 µM | GI50 [39]: 0.665 µM | TGI [39]: 8.94 µM | GI50 [40]: 1.61 µM | TGI [40]: 8 µM | GI50 [41]: 0.558 µM | TGI [41]: 28.6 µM | GI50 [42]: 0.946 µM | TGI [42]: 3.1 µM | GI50 [43]: 0.31 µM | TGI [43]: 1.9 µM | GI50 [44]: 2.92 µM | TGI [44]: 18.2 µM | GI50 [45]: 0.385 µM | TGI [45]: 11.9 µM | GI50 [46]: 0.334 µM | TGI [46]: 10.7 µM | GI50 [47]: 2.06 µM | TGI [47]: 6.21 µM | GI50 [48]: 2.02 µM | TGI [48]: 11.8 µM | GI50 [49]: 0.76 µM | TGI [49]: > 100 µM | GI50 [50]: 3.15 µM | TGI [50]: 17 µM | GI50 [51]: 0.513 µM | TGI [51]: 7.22 µM | GI50 [52]: 0.853 µM | TGI [52]: 17.2 µM | GI50 [53]: 1.86 µM | TGI [53]: 4.06 µM | GI50 [55]: 0.32 µM | TGI [55]: 2.35 µM | GI50 [56]: 1.71 µM | TGI [56]: 13.2 µM | GI50 [57]: 1.23 µM | TGI [57]: 12.4 µM | GI50 [58]: 1.96 µM | TGI [58]: 11.3 µM
